“And” between values parts separate entries of the source, which are not always exact repeats. Identical values can stand only once.
Key:
[1] = Solubility studies in water at 2 hours; type: physicochemical
[2] = Pharmacokinetic study: plasma concentration and plasma PK parameters after IV/PO dosing (LC-MS/MS, WinNonlin); type: in vivo, Male SD Rat; settings: for AUCInf / AUClast / AUClast/D / AUC—% Extrap_obs / Cmax / MRTInf_obs / T1/2 / Tmax / AUCInf, Mean / AUClast, Mean / AUClast/D, Mean / AUC—% Extrap_obs, Mean / Cmax, Mean / MRTInf_obs, Mean / T1/2, Mean / Tmax, Mean: plasma
From the text: Pharmacokinetic and Brain Penetration Study
Dose formulation processing during dosing: The dose formulations will be kept at room temperature.
Concentrations of Test Article in the plasma samples will be analyzed using a LC-MS/MS method.
WinNonlin (Phoenix™, version 6.1) or other similar software will be used for pharmacokinetic calculations. The following pharmacokinetic parameters will be calculated, whenever possible from the plasma concentration versus time data:
IV administration: T1/2, C0, AUClast, AUCinf, MRTinf, Cl, Vss, Number of Points for Regression.
PO administration: T1/2, Cmax, Tmax, MRTinf, AUCinf, AUClast, F %, Number of Points for Regression.
The pharmacokinetic data will be described using descriptive statistics such as mean, standard deviation.

[3] = male SD rat, PO 10 mg/kg (equal to freebase), individual rats, vehicle 20% HP-β-CD in water (POA, freebase) or water (salts), 10 mg/kg
[4] = male SD rat, PO 10 mg/kg (equal to freebase), mean n=3, vehicle 20% HP-β-CD in water (POA, freebase) or water (salts)
[5] = PO (group POF), 10 mg/kg, individual rats R49, R50, R51, 10 mg/kg
[6] = PO (group POF), 10 mg/kg, mean of R49-R51

## COc1cc2c(cc1OC)C1Cc3ccc(O)c(OC)c3CN1CC2.CS(=O)(=O)O (stereo not drawn) [TLZ-16 mesylate]
[1]
  solubility in water: approximately 20 mg/mL
[2]; male SD rat, PO 10 mg/kg (equal to freebase) vs IV 3 mg/kg freebase, individual rats, vehicle 20% HP-β-CD in water (POA, freebase) or water (salts)
  F: 39.9% and 42.6% and 38.1%
[2]; male SD rat, PO 10 mg/kg (equal to freebase) vs IV 3 mg/kg freebase, mean n=3, vehicle 20% HP-β-CD in water (POA, freebase) or water (salts)
  F, Mean: 40.2%
[2]; male SD rat, PO 10 mg/kg (equal to freebase), 0 h, individual rats, vehicle 20% HP-β-CD in water (POA, freebase) or water (salts)
  concentration in plasma: BLOQ (BLOQ = below limit of quantitation (0.2 ng/mL))
[2]; male SD rat, PO 10 mg/kg (equal to freebase), 0.25 h, individual rats, vehicle 20% HP-β-CD in water (POA, freebase) or water (salts), 10 mg/kg
  concentration in plasma: 227 ng/mL and 253 ng/mL and 256 ng/mL
[2]; male SD rat, PO 10 mg/kg (equal to freebase), 0.25 h, mean n=3, vehicle 20% HP-β-CD in water (POA, freebase) or water (salts)
  concentration in plasma, Mean: 245 ng/mL
[2]; male SD rat, PO 10 mg/kg (equal to freebase), 0.5 h, individual rats, vehicle 20% HP-β-CD in water (POA, freebase) or water (salts), 10 mg/kg
  concentration in plasma: 192 ng/mL and 233 ng/mL and 338 ng/mL
[2]; male SD rat, PO 10 mg/kg (equal to freebase), 0.5 h, mean n=3, vehicle 20% HP-β-CD in water (POA, freebase) or water (salts)
  concentration in plasma, Mean: 254 ng/mL
[2]; male SD rat, PO 10 mg/kg (equal to freebase), 1 h, individual rats, vehicle 20% HP-β-CD in water (POA, freebase) or water (salts), 10 mg/kg
  concentration in plasma: 162 ng/mL and 197 ng/mL and 208 ng/mL
[2]; male SD rat, PO 10 mg/kg (equal to freebase), 1 h, mean n=3, vehicle 20% HP-β-CD in water (POA, freebase) or water (salts)
  concentration in plasma, Mean: 189 ng/mL
[2]; male SD rat, PO 10 mg/kg (equal to freebase), 2 h, individual rats, vehicle 20% HP-β-CD in water (POA, freebase) or water (salts), 10 mg/kg
  concentration in plasma: 211 ng/mL and 180 ng/mL and 271 ng/mL
[2]; male SD rat, PO 10 mg/kg (equal to freebase), 2 h, mean n=3, vehicle 20% HP-β-CD in water (POA, freebase) or water (salts)
  concentration in plasma, Mean: 221 ng/mL
[2]; male SD rat, PO 10 mg/kg (equal to freebase), 4 h, individual rats, vehicle 20% HP-β-CD in water (POA, freebase) or water (salts), 10 mg/kg
  concentration in plasma: 208 ng/mL and 155 ng/mL and 122 ng/mL
[2]; male SD rat, PO 10 mg/kg (equal to freebase), 4 h, mean n=3, vehicle 20% HP-β-CD in water (POA, freebase) or water (salts)
  concentration in plasma, Mean: 162 ng/mL
[2]; male SD rat, PO 10 mg/kg (equal to freebase), 8 h, individual rats, vehicle 20% HP-β-CD in water (POA, freebase) or water (salts), 10 mg/kg
  concentration in plasma: 70.3 ng/mL and 40.7 ng/mL and 35.2 ng/mL
[2]; male SD rat, PO 10 mg/kg (equal to freebase), 8 h, mean n=3, vehicle 20% HP-β-CD in water (POA, freebase) or water (salts)
  concentration in plasma, Mean: 48.7 ng/mL
[2]; male SD rat, PO 10 mg/kg (equal to freebase), 24 h, individual rats, vehicle 20% HP-β-CD in water (POA, freebase) or water (salts), 10 mg/kg
  concentration in plasma: BLOQ (BLOQ = below limit of quantitation (0.2 ng/mL)) (2×) and 0.454 ng/mL
[2]; [3]
  AUCInf: 1690 ng·h/mL and 1446 ng·h/mL and 1294 ng·h/mL
  AUClast: 1331 ng·h/mL and 1444 ng·h/mL and 1190 ng·h/mL
  AUClast/D: 133 kg·ng·h/mL/mg and 144 kg·ng·h/mL/mg and 119 kg·ng·h/mL/mg
  AUC—% Extrap_obs: 21.2% and 0.109% and 8.09%
  Cmax: 227 ng/mL and 253 ng/mL and 338 ng/mL
  MRTInf_obs: 5.40 h and 4.15 h and 3.26 h
  T1/2: 3.54 h and 2.40 h and 2.06 h
  Tmax: 0.25 h (2×) and 0.5 h
[2]; [4]
  AUCInf, Mean: 1477 ng·h/mL
  AUClast, Mean: 1322 ng·h/mL
  AUClast/D, Mean: 132 kg·ng·h/mL/mg
  AUC—% Extrap_obs, Mean: 9.82%
  Cmax, Mean: 273 ng/mL
  MRTInf_obs, Mean: 4.27 h
  T1/2, Mean: 2.67 h
  Tmax, Mean: 0.333 h

## COc1cc2c(cc1OC)[C@@H]1Cc3ccc(O)c(OC)c3CN1CC2.O=S(=O)(O)O [TLZ-16 sulfate]
[1]
  solubility in water: approximately 20 mg/mL
[2]; [5]
  F: 24.8% and 31.7% and 44.5%
  AUCInf: 840 ng·h/mL and 1074 ng·h/mL and 2115 ng·h/mL
  AUClast: 764 ng·h/mL and 899 ng·h/mL and 1486 ng·h/mL
  AUClast/D: 76.4 kg·ng·h/mL/mg and 89.9 kg·ng·h/mL/mg and 149 kg·ng·h/mL/mg
  AUC—% Extrap_obs: 9.10% and 16.3% and 29.8%
  Cmax: 231 ng/mL and 226 ng/mL and 401 ng/mL
  MRTInf_obs: 3.53 h and 4.44 h and 6.73 h
  T1/2: 2.37 h and 3.05 h and 4.97 h
  Tmax: 0.25 h (2×) and 0.5 h
[2]; [6]
  F, Mean: 33.7%
  AUCInf, Mean: 1343 ng·h/mL
  AUClast, Mean: 1049 ng·h/mL
  AUClast/D, Mean: 105 kg·ng·h/mL/mg
  AUC—% Extrap_obs, Mean: 18.4%
  Cmax, Mean: 286 ng/mL
  MRTInf_obs, Mean: 4.90 h
  T1/2, Mean: 3.46 h
  Tmax, Mean: 0.333 h
[2]; PO (group POF), 10 mg/kg, time 0 h, individual rats R49, R50, R51
  concentration in plasma, Conc.: BLOQ (BLOQ = below limit of quantitation (0.2 ng/mL))
[2]; PO (group POF), 10 mg/kg, time 0.25 h, individual rats R49, R50, R51, 10 mg/kg
  concentration in plasma, Conc.: 231 ng/mL and 226 ng/mL and 349 ng/mL
[2]; PO (group POF), 10 mg/kg, time 0.25 h, mean of R49-R51
  concentration in plasma, Mean: 269 ng/mL
[2]; PO (group POF), 10 mg/kg, time 0.5 h, individual rats R49, R50, R51, 10 mg/kg
  concentration in plasma, Conc.: 229 ng/mL and 223 ng/mL and 401 ng/mL
[2]; PO (group POF), 10 mg/kg, time 0.5 h, mean of R49-R51
  concentration in plasma, Mean: 284 ng/mL
[2]; PO (group POF), 10 mg/kg, time 1 h, individual rats R49, R50, R51, 10 mg/kg
  concentration in plasma, Conc.: 117 ng/mL and 161 ng/mL and 240 ng/mL
[2]; PO (group POF), 10 mg/kg, time 1 h, mean of R49-R51
  concentration in plasma, Mean: 173 ng/mL
[2]; PO (group POF), 10 mg/kg, time 2 h, individual rats R49, R50, R51, 10 mg/kg
  concentration in plasma, Conc.: 119 ng/mL and 152 ng/mL and 189 ng/mL
[2]; PO (group POF), 10 mg/kg, time 2 h, mean of R49-R51
  concentration in plasma, Mean: 153 ng/mL
[2]; PO (group POF), 10 mg/kg, time 4 h, individual rats R49, R50, R51, 10 mg/kg
  concentration in plasma, Conc.: 103 ng/mL and 110 ng/mL and 203 ng/mL
[2]; PO (group POF), 10 mg/kg, time 4 h, mean of R49-R51
  concentration in plasma, Mean: 139 ng/mL
[2]; PO (group POF), 10 mg/kg, time 8 h, individual rats R49, R50, R51, 10 mg/kg
  concentration in plasma, Conc.: 22.4 ng/mL and 39.9 ng/mL and 87.8 ng/mL
[2]; PO (group POF), 10 mg/kg, time 8 h, mean of R49-R51
  concentration in plasma, Mean: 50.0 ng/mL
[2]; PO (group POF), 10 mg/kg, time 24 h, individual rats R49, R50, R51
  concentration in plasma, Conc.: BLOQ (BLOQ = below limit of quantitation (0.2 ng/mL))

— patent US11236081B2, “Crystalline salts of corydalmine” (priority 2018, dated 2022)
